Measurements taken from ChEMBL document CHEMBL5357019, “Targeted Combination Therapies: A New Frontier in the Treatment of TP53 and KRAS Mutation-Associated Cancers” (2024).

Legend:
Type in all cases: functional
MIA PaCa-2 [1] = test: Antitumor activity against human MIA PaCa-2 cells assessed as inhibition of cell growth at 1000 nM incubated for 72 hrs by Celltiter Glo assay
SW837 [2] = test: Synergistic antitumor activity against human SW837 cells assessed as tumor regression at 60 mg/kg, po once daily for 18 days co-administered with sotorasib relative to control; conditions: time 18 day
MIA PaCa-2 [3] = test: Synergistic antitumor activity against human MIA PaCa-2 cells assessed as inhibition of cell growth at 1000 nM incubated for 72 hrs in the presence of sotorasib by Celltiter Glo assay
NCI-H23 [4] = test: Antitumor activity against human NCI-H23 cells assessed as inhibition of cell growth at 120 nM incubated for 72 hrs by Celltiter Glo assay relative to control
SW837 [5] = test: Antitumor activity against human SW837 cells assessed as inhibition of cell growth at 1000 nM incubated for 72 hrs by Celltiter Glo assay relative to control
SW837 [6] = test: Synergistic antitumor activity against human SW837 cells assessed as tumor growth inhibition at 60 mg/kg, po once daily for 18 days co-administered with sotorasib relative to control; conditions: SW837, 432 h, time 18 day, read-out: TGI
NCI-H23 [7] = test: Synergistic antitumor activity against human NCI-H23 cells assessed as inhibition of cell growth at 120 nM incubated for 72 hrs in presence of sotorasib by Celltiter Glo assay relative to control
SW837 [8] = test: Antitumor activity against human SW837 cells xenografted in mouse assessed as tumor growth inhibition at 60 mg/kg, po administered once daily for 18 days relative to control; conditions: SW837, 432 h, time 18 day, read-out: TGI
NCI-H358 [9] = test: Synergistic antitumor activity against human NCI-H358 cells assessed as inhibition of cell growth at 300 nM incubated for 72 hrs in presence of sotorasib by Celltiter Glo assay relative to control
NCI-H358 [10] = test: Antitumor activity against human NCI-H358 cells assessed as inhibition of cell growth at 300 nM incubated for 72 hrs by Celltiter Glo assay relative to control
SW837 [11] = test: Synergistic antitumor activity against human SW837 cells assessed as inhibition of cell growth at 1000 nM incubated for 72 hrs in presence of sotorasib by Celltiter Glo assay relative to control
SW837 [12] = test: Antitumor activity against human SW837 cells assessed as inhibition of cell growth at 12 nM incubated for 72 hrs by Celltiter Glo assay relative to control
NCI-H23 [13] = test: Antitumor activity against human NCI-H23 cells assessed as inhibition of cell growth at 40 nM incubated for 72 hrs by Celltiter Glo assay relative to control
MIA PaCa-2 [14] = test: Antitumor activity against human MIA PaCa-2 cells assessed as inhibition of cell growth at 350 nM incubated for 72 hrs by Celltiter Glo assay
SW837 [15] = test: Antitumor activity against human SW837 cells xenografted in mouse assessed as tumor growth inhibition at 30 mg/kg, po administered once daily for 18 days relative to control; conditions: SW837, 432 h, time 18 day, read-out: TGI
NCI-H358 [16] = test: Antitumor activity against human NCI-H358 cells assessed as inhibition of cell growth at 10 nM incubated for 72 hrs by Celltiter Glo assay relative to control

SMILES: C=CCn1c(=O)c2cnc(Nc3ccc(N4CCN(C)CC4)cc3)nc2n1-c1ccc2c(n1)[C@@](O)(CC)CC2 [AZENOSERTIB]
- inhibition at 1 µM (MIA PaCa-2 [1]): 47%
- Activity (SW837 [2]): 23%
- inhibition at 1 µM (MIA PaCa-2 [3]): 76%
- inhibition at 0.12 µM (NCI-H23 [4]): 16.5%
- inhibition at 1 µM (SW837 [5]): 28.8%
- inhibition in vivo at 60 mg/kg (SW837 [6]): 109%
- inhibition at 0.12 µM (NCI-H23 [7]): 53%
- inhibition in vivo at 60 mg/kg (SW837 [8]): 72%
- inhibition at 0.3 µM (NCI-H358 [9]): 55.6%
- inhibition at 0.3 µM (NCI-H358 [10]): 31.5%
- inhibition at 1 µM (SW837 [11]): 45.4%

SMILES: C=CC(=O)N1CCN(c2nc(=O)n(-c3c(C)ccnc3C(C)C)c3nc(-c4c(O)cccc4F)c(F)cc23)[C@@H](C)C1 [SOTORASIB]
- inhibition at 0.012 µM (SW837 [12]): 20.7%
- inhibition at 0.04 µM (NCI-H23 [13]): 27.8%
- inhibition at 0.35 µM (MIA PaCa-2 [14]): 39%
- inhibition in vivo at 30 mg/kg (SW837 [15]): 80%
- inhibition at 0.01 µM (NCI-H358 [16]): 24%
